In patent US20090054469A1, “QUINAZOLINONE DERIVATIVES AND THEIR USE AS B-RAF INHIBITORS” (ASTRAZENECA AB, priority 2005, published 2009):

Molecular target: T1, human recombinant, purified wild type His-B-Raf protein kinase (Homo sapiens, UniProt P15056)
T1 construct: His
Assay: B-Raf In Vitro ELISA Assay
Format: biochemical
Settings: 2.5 nM B-Raf, 0.15 μM MEK1, 10 μM ATP; 1 hour preincubation at 25° C.; phosphorylation of MEK1
Procedure: B-Raf In Vitro ELISA Assay
Activity of human recombinant, purified wild type His-B-Raf protein kinase was determined in vitro using an enzyme-linked immunosorbent assay (ELISA) assay format, which measures phosphorylation of the B-Raf substrate, human recombinant, purified His-derived (detagged) MEK1. The reaction utilized 2.5 nM B-Raf, 0.15 μM MEK1 and 10 μM adenosine triphosphate (ATP) in 40 mM N-(2-hydroxyethyl)piperazine-N′-(2-ethanesulfonic acid hemisodium salt (HEPES), 5 mM 1,4-dithio-DL-threitol (DTT), 10 mM MgCl2, 1 mM ethylenediaminetetraacetic acid (EDTA) and 0.2 M NaCl (1×HEPES buffer), with or without compound at various concentrations, in a total reaction volume of 25 μl in 384 well plates. B-Raf and compound were preincubated in 1×HEPES buffer for 1 hour at 25° C. Reactions were initiated with addition of MEK1 and ATP in 1×HEPES buffer and incubated at 25° C. for 50 minutes and reactions stopped by addition of 10 μl 175 mM EDTA (final concentration 50 mM) in 1×HEPES buffer. 5 μl of the assay mix was then diluted 1:20 into 50 mM EDTA in 1×HEPES buffer, transferred to 384 well black high protein binding plates and incubated overnight at 4° C. […] Blue fluorescent product was detected at excitation 325 nm and emission 420 nm using a TECAN Ultra plate reader. Data was graphed and IC50s calculated using Excel Fit (Microsoft).

T1 sequence (P15056 whole entry): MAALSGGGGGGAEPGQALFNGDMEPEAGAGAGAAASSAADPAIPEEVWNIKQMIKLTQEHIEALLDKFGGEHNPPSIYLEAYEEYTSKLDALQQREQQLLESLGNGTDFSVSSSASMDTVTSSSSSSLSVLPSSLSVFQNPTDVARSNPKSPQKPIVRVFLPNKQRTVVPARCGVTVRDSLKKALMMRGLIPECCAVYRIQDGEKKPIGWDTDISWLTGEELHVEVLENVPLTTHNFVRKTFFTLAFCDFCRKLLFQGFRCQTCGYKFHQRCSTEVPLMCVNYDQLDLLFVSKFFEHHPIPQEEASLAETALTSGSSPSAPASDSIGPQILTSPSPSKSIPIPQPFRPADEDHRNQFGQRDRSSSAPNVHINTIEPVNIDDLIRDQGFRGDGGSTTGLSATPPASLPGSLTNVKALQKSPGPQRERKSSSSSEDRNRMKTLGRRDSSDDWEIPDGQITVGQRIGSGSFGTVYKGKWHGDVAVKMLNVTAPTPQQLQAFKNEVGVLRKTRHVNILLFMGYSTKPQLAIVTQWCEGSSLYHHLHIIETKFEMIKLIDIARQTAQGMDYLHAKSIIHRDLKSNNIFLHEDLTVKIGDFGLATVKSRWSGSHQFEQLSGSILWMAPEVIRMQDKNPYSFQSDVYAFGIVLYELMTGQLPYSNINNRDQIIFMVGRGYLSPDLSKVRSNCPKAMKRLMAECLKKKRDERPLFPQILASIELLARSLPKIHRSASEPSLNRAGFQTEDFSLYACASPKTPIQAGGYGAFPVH

| Compound | IC50 [nM] |
| --- | --- |
| Cc1ccc(NC(=O)c2cccc(C(C)(C)C#N)c2)cc1NC(=O)c1ccc2ncn(C)c(=O)c2c1 [Example 6, N-(5-{[3-(1-Cyano-1-methylethyl)benzoyl]amino}-2-methylphenyl)-3-methyl-4-oxo-3,4-dihydroquinazoline-6-carboxamide] | 3 |
| Cc1ccc(NC(=O)c2cccc(C(C)(C)C#N)c2)cc1NC(=O)c1ccc2nc[nH]c(=O)c2c1 [Example 1, N-(5-{[3-(1-Cyano-1-methylethyl)benzoyl]amino}-2-methylphenyl)-4-oxo-3,4-dihydroquinazoline-6-carboxamide] | 1 |
